28 compounds from PubChem BioAssay (NCI) can be followed below.

Test in all cases: NCI anticancer screen, dose series, 48 h
For test [1], the system named is RPMI-8226 leukemia.
Test [2] has as its system 786-0 renal.
The test system of test [3] is MALME-3M melanoma.
Test [4] deals with SF-268 CNS.
Test [5] has as its system SK-MEL-28 melanoma.
The subject of test [6] is NCI-H226 lung.
In test [7] the test system is SF-295 CNS.
Test [8] deals with IGROV1 ovarian.
Test [9] concerns HOP-62 NSCLC.
Test [10] relates to SNB-75 CNS.
The test system of test [11] is DU-145 prostate.

The structures appear in SMILES notation.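 Exposure lasted 48 hours, with cells grown in 96-well plates and compounds tested at five concentrations. TGI marks complete inhibition of growth.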

As to `N#CC(NNC(=O)c1ccccc1O)c1ccccc1O` (centres undefined), the TGI was > 100 µM in test [1]; > 100 µM in test [2]; 96.1 µM in test [3]; > 100 µM in [4]; > 100 µM in test [5]; 25.1 µM in test [6]. The TGI in test [7], in test [8], in test [9] and in test [10] was > 100 µM throughout.
On to `COc1ccc(CCN2C(=O)C(=O)C(C(=O)c3ccccc3)C2c2ccccc2)cc1OC` (centres undefined), for which the TGI in test [1], in test [2], in [3], in [4], in test [5] and in [11] was > 100 µM each time. The TGI in test [7], in test [8] and in test [9] was > 100 µM in each case.
`Nc1ccc(Oc2ccc(C3(c4ccc(Oc5ccc(N)c(O)c5)cc4)C4CC5CC(C4)CC3C5)cc2)cc1O`: the TGI amounted to 5.64 µM in test [1]; 3.92 µM in test [3]; 3.62 µM in test [6]; 3.68 µM in test [11]; 14.9 µM in [7]; 4.73 µM in test [9].
For `COC(=O)[C@]1(CCC(C)=O)C(=O)C=CN([C@H](C)c2ccccc2)[C@@H]1Cc1ccc(OC)c(OCc2ccccc2)c1I`, the TGI is 51.7 µM in [1]; 34.9 µM in [2]; 38.7 µM in [4]; > 100 µM in [5]; 34.3 µM in test [6]; 37.5 µM in test [11]. Moreover, the TGI was 35.2 µM in [7], 29.1 µM in test [8] and 51.7 µM in test [9].
For `CC(=O)OCC1OC(Sc2nc(-c3ccccc3)c(C#N)c(=O)n2C2OC(COC(C)=O)C(OC(C)=O)C(OC(C)=O)C2OC(C)=O)C(OC(C)=O)C(OC(C)=O)C1OC(C)=O` (centres undefined), the TGI in test [1], in test [2], in test [4], in test [5], in test [6] and in test [11] was > 100 µM in each case. The TGI in test [7], in test [8], in [9] and in [10] was > 100 µM in each case.
For `COc1ccc2c(c1)SC1=Nc3sc4cc(OC)ccc4[n+]3CN12`, the TGI in [1] was 88.4 µM; in [2], 82.7 µM; in test [3], 57 µM; in test [4], 28.5 µM; in [11], > 100 µM; in test [7], > 100 µM. Besides, the TGI in test [8] and in test [9] was > 100 µM each time.
With `O=C(O)c1ccc2nc(-c3ccccn3)c(-c3ccccn3)nc2c1`, the TGI in [1], in test [2], in [4], in test [5], in test [6] and in test [11] was > 100 µM in each case. Also, the TGI in [7], in [8], in [9] and in [10] was > 100 µM throughout.
For the compound `N#CC(C#N)=CNC(=S)Nc1ccc(S(=O)(=O)Nc2nccs2)cc1`, the TGI in [2], in test [4], in [5], in [6], in test [11] and in [7] was > 100 µM in each case. Further, the TGI in [8], in [9] and in [10] was > 100 µM throughout.
As for `CSc1cnc2ccccc2c1Sc1cn(C)c2ccccc2c1=O`, the TGI is > 100 µM in test [1]; > 100 µM in test [2]; > 100 µM in test [3]; > 100 µM in [4]; > 100 µM in [5]; 73.8 µM in test [6]. Further, the TGI in [7] is > 100 µM; in [8], > 100 µM; in test [9] it was 57.3 µM; in test [10], 46.8 µM.
Turning to `O=[N+]([O-])C1=Cc2c(O)ccc(O)c2C2c3ccccc3NC12` (centres undefined), the TGI in test [1] was 63.6 µM; in test [2], 24.7 µM; in [4], 36.6 µM; in test [5], 43 µM; in [6], > 100 µM; in test [11] it was > 54 µM. For the same compound, the TGI is 31.5 µM in [7], 32.7 µM in test [8], 25 µM in test [9] and > 61.3 µM in test [10].
On to `Nc1cc2c(C3OC(CO)C(O)C3O)[nH]nc2c(=S)[nH]1` (centres undefined), for which the TGI in [1], in [2], in test [3], in [4], in test [5] and in [6] was > 100 µM throughout. Moreover, the TGI in test [7], in test [8], in test [9] and in test [10] was > 100 µM in each case.
In the case of `CS(=O)(=O)Sc1ccc(Cl)cc1`, the TGI was found to be 41.9 µM in test [1]; 19.2 µM in test [2]; 26.6 µM in test [3]; 12.7 µM in test [4]; 23.9 µM in [5]; 20.6 µM in test [6]. For the same compound, the TGI in test [7] is 9.21 µM; in test [8] it was 8 µM; in test [9] it was 5.29 µM; in test [10], 12.6 µM.
Regarding `O=c1[nH]c2ccccc2c(=O)c2cc3ccccc3cc12`, the TGI in test [2] was 21.9 µM; in test [3], > 100 µM; in test [4] it was 28.2 µM; in [5] it was > 100 µM; in test [6], 45.8 µM; in test [11] it was > 100 µM. The TGI was 53.9 µM in test [7], > 100 µM in test [8], 25.9 µM in [9] and 19.4 µM in test [10].
Regarding `CCOc1cc(NC(C)=O)ccc1C(=O)NN1C(=O)/C(=C/c2ccc(Cl)cc2)N=C1c1ccccc1`, the TGI in test [1], in test [2], in [5], in test [6], in test [11] and in test [7] was > 100 µM throughout. For the same compound, the TGI in [8], in test [9] and in test [10] was > 100 µM throughout.
Take `CSc1ccc(/C=C2\N=C(c3ccccc3)N(NC(=O)c3c(Cl)c(Cl)c(Cl)c(Cl)c3-c3nc4ccccc4[nH]3)C2=O)cc1`: the TGI in test [2], in test [3], in [4], in [5], in test [6] and in test [11] was > 100 µM throughout. In addition, the TGI was > 100 µM in test [7], > 100 µM in test [8], > 100 µM in test [9] and 46.6 µM in test [10].
Take `Nc1nc(NCc2ccccc2)cc(NCc2ccccc2)n1`: the TGI in test [1] is 24.6 µM; in test [2] it was 22.5 µM; in test [3], 21.7 µM; in test [4], 19.3 µM; in test [5] it was > 100 µM; in test [6], 27.5 µM. The TGI in [7] came to 69 µM; in test [8] it was 23.9 µM; in [9], 41.7 µM; in test [10], 13.1 µM.
`COc1ccc(N(c2ccc(C#N)cc2)c2ccc(C#N)cc2)cc1`: the TGI in test [2], in [4], in test [5], in test [6], in [11] and in test [7] was > 100 µM throughout. The TGI in [8], in test [9] and in test [10] was > 100 µM throughout.
In the case of `COC(=O)C(Cc1ccc2c(c1)OCO2)(NC(=O)c1ccccc1)P(=O)(OC)OC` (centres undefined), the TGI in test [1], in test [4], in test [5], in [6], in [7] and in test [8] was > 100 µM throughout. The TGI in [9] and in test [10] was > 100 µM each time.
`c1ccc2sc(C3(N4CCCCCC4)CCCCC3)cc2c1`: the TGI is 42.9 µM in [2]; 52.5 µM in test [4]; 55 µM in test [5]; 42.9 µM in test [6]; > 100 µM in test [11]; 59.1 µM in [7]. Also, the TGI in test [8] was > 100 µM; in [9], 86.8 µM; in test [10], 62.1 µM.
As for `CC(=O)Nc1ccc2c3c(cc(O)c2c1)N(C(=O)CCCCCCC(=O)Nc1ccc2c4c(cc(O)c2c1)N(C(=O)OC(C)(C)C)CC4CCl)CC3CCl` (centres undefined), the TGI in [2] is 5.55 µM; in [4] it was 1.67 µM; in test [6], 0.463 µM; in [11], 0.0587 µM; in [7], 0.957 µM; in [8] it was > 33.8 µM. In addition, the TGI in test [9] amounted to 3.45 µM; in test [10], 0.284 µM.
As to `C/C(=C\COP(=O)(O)CP(=O)(O)O)CC/C=C(\C)CNc1ccccc1`, the TGI in test [1], in test [2], in test [4], in test [5], in [6] and in test [11] was > 100 µM in each case. For the same compound, the TGI in test [7], in [8], in test [9] and in test [10] was > 100 µM in each case.
On to `Cc1c(CNc2ccc(Cl)c(Cl)c2Cl)cnc2nc(N)nc(N)c12`, for which the TGI in test [1] is 49 µM; in test [2], > 50 µM; in test [3] it was > 100 µM; in test [4], > 45.5 µM; in [5], 31.7 µM; in test [6] it was > 100 µM. In addition, the TGI in test [7] was 3.16 µM; in [8], > 49.3 µM; in test [9], > 43.5 µM; in test [10], 24.3 µM.
As to `CCCCc1c2c([n+]([O-])c3c1CCCC3)CCCC2`, the TGI in [1], in test [2], in [3], in test [4], in test [5] and in test [6] was > 100 µM throughout. Further, the TGI in test [7], in test [8] and in test [9] was > 100 µM in each case.
As to `CC1=C(C(N)=O)C(c2ccncc2)C(C#N)C(=O)N1` (centres undefined), the TGI in test [1], in test [2], in test [4], in test [5], in test [11] and in [7] was > 100 µM each time. Further, the TGI in [8], in test [9] and in test [10] was > 100 µM in each case.
As to `Cc1c(S(=O)(=O)/N=C(\NO)Nc2ccc(Cl)cc2)sc2ccc(Cl)cc12`, the TGI in test [2] turned out to be 32.3 µM; in test [3], 33.8 µM; in [4], 35.6 µM; in test [5], 32.9 µM; in test [6] it was 38.1 µM; in test [11], 53.7 µM. The TGI was 41 µM in [7], 27.5 µM in [8], 36.7 µM in [9] and 41.9 µM in test [10].
Regarding `Cc1cccc2c(=O)c3cccc(CC(=O)O)c3oc12`, the TGI in [1], in test [2], in test [3], in test [4], in test [5] and in test [6] was > 100 µM in each case. The TGI in test [7], in [8] and in test [9] was > 100 µM throughout.
Take `CCOC(=O)/C(C#N)=c1/s/c(=C(\O)N/N=C/c2ccc(OC)cc2)c(=N)n1-c1ccccc1`: the TGI in test [1], in test [4], in test [5], in [6], in [7] and in test [8] was > 100 µM throughout. For the same compound, the TGI in [9] is > 100 µM; in [10], 27.2 µM.
For the compound `CCOC(=O)c1nc2ccccc2nc1Oc1ccc(F)cc1`, the TGI in [1], in test [2], in [4], in test [5], in test [6] and in test [11] was > 100 µM throughout. In addition, the TGI in test [7], in test [8], in test [9] and in test [10] was > 100 µM each time.
